The results in this text go back to PMC10770036, “Novel dual inhibitors of PARP and HDAC induce intratumoral STING-mediated antitumor immunity in triple-negative breast cancer” (Cell Death & Disease, 2024).

Some results are limits rather than exact numbers.

For one test, the target named is T1, recombinant HDAC6 (Homo sapiens, UniProt Q9UBN7).
T1 construct: purchased BPS Bioscience
T1 sequence (Q9UBN7 1-1215): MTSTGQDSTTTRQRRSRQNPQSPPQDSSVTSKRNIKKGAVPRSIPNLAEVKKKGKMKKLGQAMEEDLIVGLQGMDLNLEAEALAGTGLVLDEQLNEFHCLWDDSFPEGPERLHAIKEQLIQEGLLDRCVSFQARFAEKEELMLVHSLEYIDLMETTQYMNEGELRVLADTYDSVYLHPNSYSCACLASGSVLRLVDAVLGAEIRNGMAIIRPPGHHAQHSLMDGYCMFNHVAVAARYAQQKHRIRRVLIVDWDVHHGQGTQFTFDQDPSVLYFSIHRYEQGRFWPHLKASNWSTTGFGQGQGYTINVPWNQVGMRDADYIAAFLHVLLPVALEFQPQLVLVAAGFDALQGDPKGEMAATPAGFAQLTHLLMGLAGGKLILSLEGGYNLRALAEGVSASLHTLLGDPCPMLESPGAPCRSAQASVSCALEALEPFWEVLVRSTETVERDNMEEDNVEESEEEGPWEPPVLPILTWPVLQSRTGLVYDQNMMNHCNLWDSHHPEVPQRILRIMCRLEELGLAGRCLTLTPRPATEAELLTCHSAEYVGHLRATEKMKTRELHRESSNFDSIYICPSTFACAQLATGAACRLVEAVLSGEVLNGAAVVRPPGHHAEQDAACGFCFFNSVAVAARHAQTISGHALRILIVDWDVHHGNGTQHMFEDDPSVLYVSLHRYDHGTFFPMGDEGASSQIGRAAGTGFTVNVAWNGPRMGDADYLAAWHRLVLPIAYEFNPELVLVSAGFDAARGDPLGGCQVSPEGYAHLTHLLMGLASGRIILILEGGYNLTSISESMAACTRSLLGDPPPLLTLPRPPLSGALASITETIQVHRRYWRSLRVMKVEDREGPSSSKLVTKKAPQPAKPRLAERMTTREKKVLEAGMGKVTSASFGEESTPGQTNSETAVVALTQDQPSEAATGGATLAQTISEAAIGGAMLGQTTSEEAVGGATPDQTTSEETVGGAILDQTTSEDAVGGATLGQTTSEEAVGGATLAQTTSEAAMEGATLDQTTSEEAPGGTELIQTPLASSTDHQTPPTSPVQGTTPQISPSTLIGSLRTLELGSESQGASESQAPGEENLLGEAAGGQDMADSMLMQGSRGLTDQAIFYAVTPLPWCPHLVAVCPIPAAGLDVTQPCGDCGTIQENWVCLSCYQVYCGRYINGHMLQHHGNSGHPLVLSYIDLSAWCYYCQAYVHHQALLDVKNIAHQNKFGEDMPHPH
Put plainly: HDAC6 inhibition assay (Ac-peptide-AMC fluorescence). The test is classed as biochemical. The procedure:
The in vitro HDAC inhibition assays were carried out by Sundia MediTech Co. Ltd. in Shanghai, China. […] Reactions were stopped with trypsin, and the samples were incubated for another 90 min at 37 °C. […] IC50 values were obtained using GraphPad Prism software.

The subject of test [1] is MDA-MB-436, MDA-MB-231, and 4T1 cell-derived xenografts. In words: Antitumor effect in tumor-bearing mice. The note with it: B102 15 mg/kg or B302 50 mg/kg, intraperitoneal, once daily, versus vehicle. The test is classed as in vivo. An excerpt:
MDA-MB-436, MDA-MB-231, and 4T1 cells were orthotopically injected into the fat pads of 6- to 7-week-old female NOD-Prkdc^scid Il2rg^em1Smoc (M-NSG), BALB/c nude and BALB/c mice, respectively. Fourteen 6-week-old female MMTV-PyMT mice were divided into two groups. The […] in each group were littermates. All animal procedures were approved by the Institutional Animal Care and Use Committee at Shenzhen University.
MDA-MB-436 cells (5 × 10^6) were suspended in PBS and Matrigel (Corning) at a 1:1 ratio and orthotopically injected into the fat pads of 6- to 7-week-old female NOD-Prkdc^scid Il2rg^em1Smoc (M-NSG) mice from the Shanghai Model Organisms Center, Inc. MDA-MB-231 cells (5 × 10^6) were suspended in PBS orthotopically injected into the fat pads of 6- to 7-week-old female BALB/c nude mice from the Shanghai Model Organisms Center, Inc. 4T1 cells (1 × 10^6) were suspended in PBS and injected into the fat pads of 6- to 7-week-old […] BALB/c mice from GemPharmatech Co., Ltd. When the tumor size reached 100 mm^3, the mice were randomly divided into three treatment groups without blinding: B102 (15 mg/kg), B302 (50 mg/kg) or vehicle [10% N,N-dimethylacetamide (DMAC, Sangon Biotech) and 6% polyethylene glycol 12-hydroxystearate (Solutol HS-15, MedChem Express, Monmouth Junction, NJ, USA) in saline] treatment via an intraperitoneal injection once daily. […]

The next test deals with MCF-7 cells. In words: MTT cell viability assay, MCF-7. To be noted: Homo sapiens, MCF7, 72 h, read-out: IC50 MCF-7.

Method for MCF-7 cells: The viability assay was measured by a 3-(4,5-dimethylthiazol-2-yl)−2,5-diphenyltetrazolium bromide (MTT) assay.
In brief, cells were seeded at a density of 6,000 cells in 96-well plates and cultured overnight. […] After aspiration of the medium, the formazan crystals were dissolved in 100 μL of DMSO. The absorbance at 490 nm was measured using a microplate reader (BioTek). All these analyses were performed at least three times.

As a reminder, the IC50 is the concentration needed to halve the response being measured. For the compound `Nc1cc(F)ccc1NC(=O)/C=C/c1ccc(CN2CCN(C(=O)c3cc(Cc4n[nH]c(=O)c5ccccc45)ccc3F)CC2)cc1` [Compound B102], the results for the IC50 at recombinant HDAC6 and with MCF-7 cells were more than 10 µM and 13.4 ± 3.2 µM, respectively. The tumor growth entry in test [1] was “robust inhibition of tumor growth at low doses”.

Turning to `Nc1cc(F)ccc1NC(=O)CCc1ccc(CN2CCN(C(=O)c3cc(Cc4n[nH]c(=O)c5ccccc45)ccc3F)CC2)cc1` [Compound B302], the half-maximal inhibitory concentration (IC50) on recombinant HDAC6 is more than 10 µM; in the test with MCF-7 cells, 4.93 ± 1.09 µM.
